These molecules were tested against Protease (Human immunodeficiency virus 1) (UniProt Q9YQ12) (assay: Inhibition of HIV1 protease at 100 uM).
Protease (Human immunodeficiency virus 1), sequence (Q9YQ12 as listed by the source): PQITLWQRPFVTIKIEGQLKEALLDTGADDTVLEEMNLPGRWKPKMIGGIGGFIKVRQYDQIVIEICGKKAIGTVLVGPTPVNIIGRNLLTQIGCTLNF

Compound | inhibition
C/C=C(/C)C(=O)OC[C@@]12[C@H](O)C[C@]3(C)C(=CC[C@@H]4[C@@]5(C)CC[C@H](O[C@@H]6O[C@H](C(=O)O)[C@@H](O[C@@H]7O[C@H](CO)[C@@H](O)[C@H](O)[C@H]7O)[C@H](O)[C@H]6O[C@@H]6O[C@H](CO)[C@@H](O)[C@H](O)[C@H]6O)[C@](C)(CO)[C@@H]5CC[C@]43C)[C@@H]1CC(C)(C)[C@@H](O)[C@@H]2O | 12.5%
C/C=C(\C)C(=O)OC[C@@]12[C@H](O)C[C@]3(C)C(=CC[C@@H]4[C@@]5(C)CC[C@H](O[C@@H]6O[C@H](C(=O)O)[C@@H](O[C@@H]7O[C@H](CO)[C@@H](O)[C@H](O)[C@H]7O)[C@H](O)[C@H]6O[C@@H]6O[C@H](CO)[C@@H](O)[C@H](O)[C@H]6O)[C@](C)(CO)[C@@H]5CC[C@]43C)[C@@H]1CC(C)(C)[C@@H](O)[C@@H]2O | 15.9%

The next lines start with the values.

inhibition | Compound
34% | C/C=C(/C)C(=O)O[C@H]1[C@H](O)C(C)(C)C[C@H]2C3=CC[C@@H]4[C@@]5(C)CC[C@H](O[C@@H]6O[C@H](C(=O)O)[C@@H](O[C@@H]7O[C@H](CO)[C@@H](O)[C@H](O)[C@H]7O)[C@H](O)[C@H]6O[C@@H]6O[C@H](CO)[C@@H](O)[C@H](O)[C@H]6O)[C@](C)(CO)[C@@H]5CC[C@@]4(C)[C@]3(C)C[C@@H](O)[C@]21COC(C)=O
14.7% | C/C=C(/C)C(=O)O[C@H]1[C@H](O)[C@]2(COC(C)=O)[C@H](O)C[C@]3(C)C(=CC[C@@H]4[C@@]5(C)CC[C@H](O[C@@H]6O[C@H](C(=O)O)[C@@H](O[C@@H]7O[C@H](CO)[C@@H](O)[C@H](O)[C@H]7O)[C@H](O)[C@H]6O[C@@H]6O[C@H](CO)[C@@H](O)[C@H](O)[C@H]6O)[C@](C)(CO)[C@@H]5CC[C@]43C)[C@@H]2CC1(C)C
39% | C/C=C(\C)C(=O)O[C@H]1[C@H](O)[C@]2(COC(C)=O)[C@H](O)C[C@]3(C)C(=CC[C@@H]4[C@@]5(C)CC[C@H](O[C@@H]6O[C@H](C(=O)O)[C@@H](O[C@@H]7O[C@H](CO)[C@@H](O)[C@H](O)[C@H]7O)[C@H](O)[C@H]6O[C@@H]6O[C@H](CO)[C@@H](O)[C@H](O)[C@H]6O)[C@](C)(CO)[C@@H]5CC[C@]43C)[C@@H]2CC1(C)C
35.2% | C/C=C(\C)C(=O)O[C@H]1[C@H](O)C(C)(C)C[C@H]2C3=CC[C@@H]4[C@@]5(C)CC[C@H](O[C@@H]6O[C@H](C(=O)O)[C@@H](O[C@@H]7O[C@H](CO)[C@@H](O)[C@H](O)[C@H]7O)[C@H](O)[C@H]6O[C@@H]6O[C@H](CO)[C@@H](O)[C@H](O)[C@H]6O)[C@](C)(CO)[C@@H]5CC[C@@]4(C)[C@]3(C)C[C@@H](O)[C@]21COC(C)=O

Each molecule was assayed against Protease (Human immunodeficiency virus 1, UniProt Q9YQ12) (assay: Inhibition of HIV1 protease).
Protease, sequence (Q9YQ12 whole entry): as the sequence (Q9YQ12 as listed by the source) above

Compound | IC50
C/C=C(\C)C(=O)O[C@H]1[C@H](OC(C)=O)[C@]2(CO)[C@H](O)C[C@]3(C)C(=CC[C@@H]4[C@@]5(C)CC[C@H](O[C@@H]6O[C@H](C(=O)O)[C@@H](O[C@@H]7O[C@H](CO)[C@@H](O)[C@H](O)[C@H]7O)[C@H](O)[C@H]6O[C@@H]6O[C@H](CO)[C@@H](O)[C@H](O)[C@H]6O)[C@](C)(CO)[C@@H]5CC[C@]43C)[C@@H]2CC1(C)C [ESCIN IA] | 35 µM
C/C=C(/C)C(=O)O[C@H]1[C@H](OC(C)=O)[C@]2(CO)[C@H](O)C[C@]3(C)C(=CC[C@@H]4[C@@]5(C)CC[C@H](O[C@@H]6O[C@H](C(=O)O)[C@@H](O[C@@H]7O[C@H](CO)[C@@H](O)[C@H](O)[C@H]7O)[C@H](O)[C@H]6O[C@@H]6O[C@H](CO)[C@@H](O)[C@H](O)[C@H]6O)[C@](C)(CO)[C@@H]5CC[C@]43C)[C@@H]2CC1(C)C [ESCIN IB] | 50 µM

Source: ChEMBL document CHEMBL1144136, “Anti-HIV-1 protease triterpenoid saponins from the seeds of Aesculus chinensis” (J Nat Prod, 1999)
